Experimental data: US11612606B2, “8-aminoisoquinoline compounds and uses thereof” (priority 2018, dated 2023)
Counter-ions that a name gives are not always drawn. Like-named read-outs stand apart in the source and are kept apart here.

Tests used:
[1] = Permeability assay in gMDCKI cells; type: in vitro ADME, canine; details: dog, MDCK, apical-to-basolateral, 2-hour incubation, read-out: MDCK AB Papp
Procedure: Cell permeability of compounds of interest was assessed in the gMDCKI cell line, which is a modified MDCKI (Madin-Darby canine kidney) originally acquired from American Type Culture Collection (Manassa, Va.) and generated at Genentech. […] Test article was tested at 10 μM in the apical-to-basolateral (A-B) and basolateral-to-apical (B-A) directions. Test compound was dissolved in transport buffer consisting of Hank's balanced salt solution and […] (Invitrogen Corporation, Grand Island, N.Y.). Transepithelial electrical resistance (TEER) and lucifer yellow (LY) permeability were used to monitor monolayer integrity at the beginning and the end of the experiments, respectively. Test articles were analyzed by LC-MS/MS.
The efflux ratio (ER) is calculated as (Papp, B−A/Papp, A−B).
Cell permeability were assessed for exemplary compounds of Formula (I).

[2] = Pharmacokinetic study in rat; type: in vivo, Sprague Dawley rat; details: male, Sprague Dawley, in vivo, PO 2 mg/kg, 10% DMSO/60% PEG400/30% Water, Solution
Procedure: Pharmacokinetic Study in Rat: Male Sprague Dawley rats obtained from Lingchang/Vital River Laboratory Animal Technology Co., Ltd., (Shanghai/Beijing, P.R. China) with body weight ranging between 200 g to 300 g were use in the PK studies. Group of 3 rats were given a 1 mg/kg intravenous bolus (IV) dose of the test article in solution formulation, and another group of 3 rats were given a 2 or 5 mg/kg oral (PO) dose of test article as a 0.5% methylcellulose with 0.2% Tween 80 (MCT) suspension or as a solution. Blood samples (250 μL, per time point) were collected serially via the catheter in femoral artery at 0.033, 0.083, 0.25, 0.5, 1, 2, 4, 6, and 8 hours after IV or PO administration from each of the rat. Blood samples were collected into pre-chilled tubes containing Potassium (K2) EDTA and centrifuged at 3,200 g for 10 minutes at 2 to 8° C. within 1 hour of collection to harvest plasma. Plasma samples were stored at −70° C. until LC/MS/MS analysis. Concentration in each plasma sample was determined by a non-validated LC/MS/MS. Data is acquired using multiple reaction monitoring (MRM) with specific transitions monitored for each compound.
Following PO administration, percent bioavailability (% F) was determined for each animal by dividing the dose normalized area under the plasma concentration-time curve, extrapolated to infinity (AUCinf) obtained following each PO dose by the mean dose normalized AUCinf of the animals dosed by IV injection. All PK parameters are presented as mean±standard deviation (SD).
Pharmacokinetic studies were conducted in rat for exemplary compounds of Formula (I).

[3] = target: HPK full length, T165E S171E (Homo sapiens (Human), UniProt Q92918, S171E/T165E); assay: HPK1-FL HTRF enzymatic assay ("HTRF"); type: biochemical; details: ATP 1 mM, read-out: HPK1 Ki
Method in brief: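 HTRF detection of phosphorylated biotin-SLP-76 used Eu-anti-pSLP76 antibody and SA-XL665, read after 60 min. The kinase reaction ran 60 min at […], following a 30-min compound preincubation with the full-length enzyme.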

[4] = system: phosphorylation of SLP-76 (S376) by HPK-1 in human Jurkat cells; assay: pSLP76 assay (sandwich ELISA, anti-CD3 stimulated Jurkat cells); type: cell-based; details: Homo sapiens; Jurkat cells, anti-CD3 stimulation; read-out: pSLP76 IC50
Procedure: Phospho-SLP76 (S376) is detected by sandwich ELISA using an anti-pSLP76(S376) capture antibody and a biotinylated anti-SLP76 detection antibody.
Incubate Jurkat cells with varying concentrations of test compounds for 30 minutes in a humidified incubator at 37° C. and 5% CO2. Add anti-CD3 DynaBeads at a 4:1 bead:cell ratio. Stimulate cells in a humidified incubator at 37° C. and 5% CO2 for 10 minutes. Add cold lysis buffer and incubate on a shaker at 4° C. for 30 minutes. Transfer cell lysates to a pre-blocked ELISA plate coated with capture antibody. Incubate at room temperature shaking for 2 hours. Wash ELISA plate 5× with wash buffer and add 25 μl of biotinylated detection antibody at a final concentration of 0.5 μg/ml. Incubate at room temperature shaking for 1 hour. Wash ELISA plate 5× with wash buffer and add 25 μl of streptavidin enzyme conjugate at a final dilution of 1:8000. Incubate at room temperature shaking for 20 minutes. Wash ELISA plate 5× with wash buffer and add 25 μl of TMB substrate solution. Incubate at room temperature in the dark shaking for 20 minutes. Add 25 μl of STOP solution and read on SoftMax Pro for absorbance at 450 nm.
Exemplary compounds of Formula (I) were tested in pSLP76 assays.

[5] = Hepatocyte stability assay; type: in vitro ADME; details: cryopreserved human hepatocytes (10 donor pool, suspension), scaled hepatic clearance, read-out: HHep Clearance
Procedure: Metabolic stability of compounds are assessed using a hepatocyte stability assay. Cryopreserved human hepatocytes from a 10 donor pool are quickly thawed at 37° C., suspended in prewarmed In VitroGRO™ HT Medium, and then centrifuged at 100×g at room temperature for 10 min. The supernatants are discarded, and cells are resuspended in 5 mL Dulbecco's Modified Eagle Medium (DMEM) medium. Cell viability in suspension is counted on a Hepatometer® Vision (Lonza, N.C.), and viable cells are then adjusted to […] in DMEM. Compounds are first diluted to 2 μM with DMEM medium, and then aliquots of 125 μL of drug-containing medium are transferred to 96-well non-coated plates. Incubation is initiated by the addition of 125 μL of hepatocyte suspension to yield a total incubation volume of 250 μL. Final concentration of each compound is 1 μM, and final cell density is 0.5×10^6 cells/mL. Incubations are conducted in a humidified incubator at 37° C. Aliquots of 50 μL incubation medium are taken out at different time intervals (0, 60, 120 and 180 min), and immediately mixed with 100 μL of ice-cold acetonitrile containing 50 nM propranolol (internal standard). Samples are then centrifuged at 10,000×g for 10 min, and 80 μL of supernatant is taken out and diluted with 160 μL of water prior to LC/MS-MS analysis.
Human hepatocyte stability was assessed for exemplary compounds of Formula (I) according to the above procedures.

[6] = system: primary human pan T cells; assay: Human T-cell IL2 induction assay; type: cell-based
Procedure: Assay Principle: Anti-CD3 and anti-CD28 activates TCR signaling in primary human pan T cells leading to IL-2 promoter induction. Secreted IL-2 in cell culture supernatant is detected by electrochemiluminescence using a capture antibody against IL-2 and an anti-IL-2 antibody labeled with SULFO-tag. Also see www.mesoscale.com for additional electrochemiluminescence technology information.
Assay Procedure: Incubate primary human pan T cells with varying concentrations of test compounds for 30 minutes in a humidified incubator at 37° C. and 5% CO2. Transfer cells to a plate pre-coated with a fixed concentration of anti-human CD3 (determined separately for each donor lot) and add soluble anti-human CD28 (final concentration=1 μg/ml). Stimulate cells in a humidified incubator at 37° C. and 5% CO2 for 4 hours. Transfer 25 μl of supernatant to a MSD single spot plate pre-coated with an anti-human IL-2 antibody. Incubate MSD plate overnight at 4° C. with gentle shaking. Wash MSD plate 4× with wash buffer. Add SULFO-tagged detection antibody at a 1:50 dilution and incubate at room temperature shaking for 2 hours. Wash MSD plate 4× with wash buffer and add 150 μl 2×MSD read buffer. Read on an MSD instrument. Normalize data to stimulated/untreated controls to calculate % activity at each concentration of compound.
Instrumentation: • Biomek FX for liquid handling (Beckman Coulter) • MSD SECTOR S 600 (Meso Scale Discovery)
Exemplary compounds of Formula (I) were tested in the human T-cell IL-2 induction assays.

Sequence of HPK full length, T165E S171E (Q92918 whole entry T165E/S171E, looked up): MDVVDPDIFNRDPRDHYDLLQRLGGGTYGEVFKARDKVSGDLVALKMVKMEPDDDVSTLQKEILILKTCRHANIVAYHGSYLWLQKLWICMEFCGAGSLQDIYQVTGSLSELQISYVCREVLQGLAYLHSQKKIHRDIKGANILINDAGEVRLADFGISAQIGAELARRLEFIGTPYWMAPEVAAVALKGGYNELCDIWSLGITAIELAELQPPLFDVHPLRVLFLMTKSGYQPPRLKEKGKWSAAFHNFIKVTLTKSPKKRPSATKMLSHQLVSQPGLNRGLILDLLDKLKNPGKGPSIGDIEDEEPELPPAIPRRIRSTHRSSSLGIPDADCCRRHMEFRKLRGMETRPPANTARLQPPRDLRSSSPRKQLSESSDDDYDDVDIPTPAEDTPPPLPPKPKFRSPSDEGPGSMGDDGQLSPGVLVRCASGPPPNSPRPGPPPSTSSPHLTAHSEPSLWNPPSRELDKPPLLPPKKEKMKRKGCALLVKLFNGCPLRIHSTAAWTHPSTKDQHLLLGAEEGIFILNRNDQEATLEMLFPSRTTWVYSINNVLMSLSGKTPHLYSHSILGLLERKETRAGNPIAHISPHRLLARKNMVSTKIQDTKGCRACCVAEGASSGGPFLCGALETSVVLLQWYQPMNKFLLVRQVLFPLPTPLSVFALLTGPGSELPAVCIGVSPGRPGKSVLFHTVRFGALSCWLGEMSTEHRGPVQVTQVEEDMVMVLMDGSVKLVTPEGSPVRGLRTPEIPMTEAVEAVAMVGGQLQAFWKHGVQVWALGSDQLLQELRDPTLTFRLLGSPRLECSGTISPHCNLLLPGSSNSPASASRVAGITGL

Compound | Ki [3] [nM] | % IL-2 increase relative to untreated cells ([6]; assayed concentration 2.778 μM) [%] | further results
CCc1c(-c2cc3cc(NC(=O)O[C@@H]4COC[C@H]4C)ncc3c(N)c2F)cnc2c1NCCO2.Cl (single isomer, unassigned) [Compound 555b, (3S,4R)-4-Methyltetrahydrofuran-3-yl (8-amino-6-(8-ethyl-2,3-dihydro-1H-pyrido[2,3-b][1,4]oxazin-7-yl)-7-fluoroisoquinolin-3-yl)carbamate hydrochloride] |  |  | Papp at 2 h, 10 μM [1]: 15 ×10⁻⁶ cm/s; bioavailability [2]: 34%
CCc1c(-c2cc3cc(NC(=O)O[C@@H]4COC[C@H]4C)ncc3c(N)c2F)cnc2c1NCCO2.Cl (single isomer, unassigned) [Compound 555b, hydrochloride] | < 0.013 |  | IC50 [4]: 24 nM; CLhep predicted at 1 μM [5]: 13 mL/min/kg
Cc1c(-c2cc3cc(NC(=O)O[C@H]4CCN(C)C4)ncc3c(N)c2F)cnc2c1NCCO2 [Compound 411a, (S)-1-Methylpyrrolidin-3-yl (8-amino-7-fluoro-6-(8-methyl-2,3-dihydro-1H-pyrido[2,3-b][1,4]oxazin-7-yl)isoquinolin-3-yl)carbamate] | 0.25 | 2119 | 
Cc1c(-c2cc3cc(NC(=O)O[C@@H]4CCCN(C)C4)ncc3c(N)c2F)cnc2c1NCCO2 [Compound 416a, (R)-1-Methylpiperidin-3-yl (8-amino-7-fluoro-6-(8-methyl-2,3-dihydro-1H-pyrido[2,3-b][1,4]oxazin-7-yl)isoquinolin-3-yl)carbamate] | 0.075 | 2989 | 
Cc1c(-c2cc3cc(NC(=O)OC4CC(C)(O)C4)ncc3c(N)c2F)cnc2c1NCCO2 (stereo not shown) [Compound 486, (3-Hydroxy-3-methyl-cyclobutyl) N-[8-amino-7-fluoro-6-(8-methyl-2,3-dihydro-1H-pyrido[2,3-b][1,4]oxazin-7-yl)-3-isoquinolyl]carbamate] | < 0.013 | 1400 | 
CC[C@]1(O)C[C@H](OC(=O)Nc2cc3cc(-c4cnc5c(c4C)NCCO5)c(F)c(N)c3cn2)C1 [Compound 512b, (1r,3s)-3-Ethyl-3-hydroxycyclobutyl (8-amino-7-fluoro-6-(8-methyl-2,3-dihydro-1H-pyrido[2,3-b][1,4]oxazin-7-yl)isoquinolin-3-yl)carbamate hydrochloride] |  | 2613 | Ki ([3]; hydrochloride): < 0.013 nM
Cc1c(-c2cc3cc(NC(=O)O[C@H]4C[C@@](C)(O)[C@H]4C)ncc3c(N)c2F)cnc2c1NCCO2 [Compound 526b, (1S,2S,3R)-3-Hydroxy-2,3-dimethylcyclobutyl (8-amino-7-fluoro-6-(8-methyl-2,3-dihydro-1H-pyrido[2,3-b][1,4]oxazin-7-yl)isoquinolin-3-yl)carbamate] | 0.016 | 970 | 
Cc1c(-c2cc3cc(NC(=O)O[C@H]4C[C@](C)(O)[C@@H]4C)ncc3c(N)c2F)cnc2c1NCCO2 [Compound 526c, (1S,2R,3S)-3-Hydroxy-2,3-dimethylcyclobutyl (8-amino-7-fluoro-6-(8-methyl-2,3-dihydro-1H-pyrido[2,3-b][1,4]oxazin-7-yl)isoquinolin-3-yl)carbamate] | 0.015 | 1677 | 
Cc1c(-c2cc3cc(NC(=O)O[C@H]4CC[C@@H]4C#N)ncc3c(N)c2F)cnc2c1NCCO2 [Compound 535a, (1S,2R)-2-Cyanocyclobutyl (8-amino-7-fluoro-6-(8-methyl-2,3-dihydro-1H-pyrido[2,3-b][1,4]oxazin-7-yl)isoquinolin-3-yl)carbamate] | < 0.013 | 831 | 
Cc1c(-c2cc3cc(NC(=O)O[C@H]4C[C@H](N5CCOCC5)C4)ncc3c(N)c2F)cnc2c1NCCO2 [Compound 550a, (1r,3r)-3-Morpholinocyclobutyl (8-amino-7-fluoro-6-(8-methyl-2,3-dihydro-1H-pyrido[2,3-b][1,4]oxazin-7-yl)isoquinolin-3-yl)carbamate] | < 0.013 | 1059 | 
Cc1c(-c2cc3cc(NC(=O)NC4CCOCC4)ncc3c(N)c2F)cnc2c1NCCO2 [Compound 701, 1-(8-Amino-7-fluoro-6-(8-methyl-2,3-dihydro-1H-pyrido[2,3-b][1,4]oxazin-7-yl)isoquinolin-3-yl)-3-(tetrahydro-2H-pyran-4-yl)urea] | < 0.013 | 4163 | 
Cc1c(-c2cc3cc(NC(=O)N[C@H]4CCC[C@H]4F)ncc3c(N)c2F)cnc2c1NCCO2 [Compound 727b, 1-[8-Amino-7-fluoro-6-(8-methyl-2,3-dihydro-1H-pyrido[2,3-b][1,4]oxazin-7-yl)-3-isoquinolyl]-3-[(1S,2R)-2-fluorocyclopentyl]urea] | < 0.013 |  | % IL-2 increase relative to untreated cells ([6]; assayed concentration 0.926 μM): 938%
